Experimental data published in ChEMBL document CHEMBL4814067, “An optimized analog of antimicrobial peptide Jelleine-1 shows enhanced antimicrobial activity against multidrug resistant P. aeruginosa and negligible toxicity in vitro and in vivo” (Eur J Med Chem, 2021).
≈ marks a conversion by molar mass, not a printed value. Positions of bridges follow the written chain, without caps; N, C: chain ends. Non-standard residues stand in square brackets, D forms with d. Residues, ends and D or L forms follow the SMILES beside them. *: point of attachment. X1 = CC[C@H](C)CCCCC(=O)*; Dab = NCC[C@H](N)C(=O)O

Legend:
Format in all cases: functional
Escherichia coli [1] = test: Antibacterial activity against Escherichia coli ATCC 25922 assessed as transparent well by visual inspection after 18 hrs by CLSI based-broth microdilution method
Pseudomonas aeruginosa [2] = test: Antibacterial activity against Pseudomonas aeruginosa ATCC 27853 assessed as transparent well by visual inspection after 18 hrs by CLSI based-broth microdilution method
Enterobacter sp. = test: Antibacterial activity against Enterobacter sakazakii ATCC 29544 assessed as transparent well by visual inspection after 18 hrs by CLSI based-broth microdilution method
Staphylococcus aureus [3] = test: Antibacterial activity against Staphylococcus aureus ATCC 29213 assessed as transparent well by visual inspection after 18 hrs by CLSI based-broth microdilution method; settings: C1 ATCC 29213
Bacillus subtilis = test: Antibacterial activity against Bacillus subtilis ATCC 23857 assessed as transparent well by visual inspection after 18 hrs by CLSI based-broth microdilution method
[4] = tested on: Staphylococcus epidermidis; test: Antibacterial activity against Staphylococcus epidermidis ATCC 12228 assessed as transparent well by visual inspection after 18 hrs by CLSI based-broth microdilution method
Staphylococcus aureus [5] = test: Antibacterial activity against methicillin resistant Staphylococcus aureus clinical isolate 1 assessed as transparent well by visual inspection after 18 hrs by CLSI based-broth microdilution method; settings: C1
Staphylococcus aureus [6] = test: Antibacterial activity against methicillin resistant Staphylococcus aureus clinical isolate 2 assessed as transparent well by visual inspection after 18 hrs by CLSI based-broth microdilution method
Staphylococcus aureus [7] = test: Antibacterial activity against methicillin resistant Staphylococcus aureus clinical isolate 3 assessed as transparent well by visual inspection after 18 hrs by CLSI based-broth microdilution method
Staphylococcus aureus [8] = test: Antibacterial activity against methicillin resistant Staphylococcus aureus clinical isolate 4 assessed as transparent well by visual inspection after 18 hrs by CLSI based-broth microdilution method
Escherichia coli [9] = test: Antibacterial activity against ESBL-producing Escherichia coli clinical isolate 1 assessed as transparent well by visual inspection after 18 hrs by CLSI based-broth microdilution method
Escherichia coli [10] = test: Antibacterial activity against ESBL-producing Escherichia coli clinical isolate 2 assessed as transparent well by visual inspection after 18 hrs by CLSI based-broth microdilution method
Escherichia coli [11] = test: Antibacterial activity against ESBL-producing Escherichia coli clinical isolate 3 assessed as transparent well by visual inspection after 18 hrs by CLSI based-broth microdilution method
Escherichia coli [12] = test: Antibacterial activity against ESBL-producing Escherichia coli clinical isolate 4 assessed as transparent well by visual inspection after 18 hrs by CLSI based-broth microdilution method
Escherichia coli [13] = test: Antibacterial activity against ESBL-producing Escherichia coli clinical isolate 5 assessed as transparent well by visual inspection after 18 hrs by CLSI based-broth microdilution method
Pseudomonas aeruginosa [14] = test: Antibacterial activity against Pseudomonas aeruginosa clinical isolate assessed as transparent well by visual inspection after 18 hrs by CLSI based-broth microdilution method

Row | Molecule | MIC (Escherichia coli [1]) | MIC (Pseudomonas aeruginosa [2]) | MIC (Enterobacter sp.) | MIC (Staphylococcus aureus [3]) | MIC (Bacillus subtilis) | MIC [4] | MIC (Staphylococcus aureus [5]) | MIC (Staphylococcus aureus [6]) | MIC (Staphylococcus aureus [7]) | MIC (Staphylococcus aureus [8]) | MIC (Escherichia coli [9]) | MIC (Escherichia coli [10]) | MIC (Escherichia coli [11]) | MIC (Escherichia coli [12]) | MIC (Escherichia coli [13]) | MIC (Pseudomonas aeruginosa [14])
1 | H-PWRLRLHL-OH | 8 µM | 32 µM | 8 µM | 32 µM | 8 µM | 16 µM | – | – | – | – | – | – | – | – | – | –
2 | CC[C@H](C)CCCCC(=O)N[C@@H](CCN)C(=O)N[C@H](C(=O)N[C@@H](CCN)C(=O)N[C@H]1CCNC(=O)[C@H]([C@@H](C)O)NC(=O)[C@H](CCN)NC(=O)[C@H](CCN)NC(=O)[C@H](CC(C)C)NC(=O)[C@@H](Cc2ccccc2)NC(=O)[C@H](CCN)NC1=O)[C@@H](C)O (X1-[Dab]T[Dab][Dab][Dab][dF]L[Dab][Dab]T; lactam 4-C) | 0.5 µM (≈ 0.602 µg/mL) | 1 µM (≈ 1.2 µg/mL) | 0.5 µM (≈ 0.602 µg/mL) | 8 µM (≈ 9.63 µg/mL) | 2 µM (≈ 2.41 µg/mL) | 2 µM (≈ 2.41 µg/mL) | 8 µM (≈ 9.63 µg/mL) | 8 µM (≈ 9.63 µg/mL) | 8 µM (≈ 9.63 µg/mL) | 8 µM (≈ 9.63 µg/mL) | 0.5 µM (≈ 0.602 µg/mL) | 0.5 µM (≈ 0.602 µg/mL) | 0.5 µM (≈ 0.602 µg/mL) | 0.5 µM (≈ 0.602 µg/mL) | 0.5 µM (≈ 0.602 µg/mL) | 1 µM (≈ 1.2 µg/mL)
3 | H-PWRLSLRL-OH | 8 µM | 8 µM | 8 µM | 32 µM | 8 µM | 16 µM | – | – | – | – | – | – | – | – | – | –
4 | H-PWKLSLHL-OH | 16 µM | 16 µM | 16 µM | 64 µM | 16 µM | 32 µM | – | – | – | – | – | – | – | – | – | –
5 | H-PFKLKLHL-OH | 32 µM | 32 µM | 32 µM | 128 µM | 32 µM | 32 µM | – | – | – | – | – | – | – | – | – | –
6 | H-PFKLSLKL-OH | 32 µM | 32 µM | 32 µM | 128 µM | 16 µM | 16 µM | – | – | – | – | – | – | – | – | – | –
7 | H-PFKLKLKL-OH | 32 µM | 32 µM | 32 µM | 128 µM | 16 µM | 16 µM | – | – | – | – | – | – | – | – | – | –
8 | H-PFRLSLHL-OH | 32 µM | 32 µM | 32 µM | 128 µM | 16 µM | 34 µM | – | – | – | – | – | – | – | – | – | –
9 | H-PWKLKLKL-OH | 16 µM | 64 µM | 16 µM | 32 µM | 16 µM | 16 µM | – | – | – | – | – | – | – | – | – | –
